Assay results taken from patent US10239889B1, “Pentacyclic compound” (Eisai R&D Management Co., Ltd., priority 2017, dated 2019).

How the values were obtained:
[1] = test system: human tau P301S transgenic mice; assay: Evaluation in human tau P301S transgenic mouse: ChAT positive cells in the medial septal area; assay type: in vivo; conditions: mean±SEM
Description: Evaluation in Human Tau P301S Transgenic Mouse
(1) Compound Administration
In this study, the test compounds were orally administered to human tau P301S transgenic mice once a day for three months from four-month-old to seven-month-old. The vehicle used was 0.01 mol/L hydrochloric acid.
At the initial day of the administration (four-month-old) and at the next day of the final administration, mice of vehicle administration group and test compound administration group were anesthetized under pentobarbital (50 mg/kg, i.p.) and perfused with PBS. After the perfusion, the forebrain including the medial septal area was collected and fixed with 4% paraformaldehyde.
(3) Preparation of Brain Coronal Frozen Section
The collected forebrain including the medial septal area was immersed and shaken overnight in 4% paraformaldehyde. […]
The prepared brain coronal frozen sections were stained with DAB (DAB PEROXIDASE SUBSTRATE KIT (Vector, SK-4100)) using a ChAT antibody (Santa Cruz, S.C.-20672) as a primary antibody. The section image including the medial septal area as shown in “The mouse Brain in stereotaxic coordinates” (COMPACT THIRD EDITION, Keith B.J. Franklin & George Paxinos) was taken by an all-in-one fluorescence microscope (KEYENCE, BZ-X710) and ChAT positive cells around the major axis of the medial septal area were counted by BZ analysis software (KEYENCE). […] Data are expressed as the mean±SEM. […]

[2] = test system: cholinergic neurons, fimbria-fornix lesioned rat model; assay: Neuroprotective and restorative effect on cholinergic neurons using fimbria-fornix lesioned rat model (ChAT positive cells, hippocampal VAChT); assay type: in vivo; conditions: % of sham-operated group, mean±SEM; for OD in hippocampal VAChT (%) in test compound administration group: hippocampus; for Number of ChAT positive cells (%) in test compound administration group: medial septal area
Method: Neuroprotective and Restorative Effect on Cholinergic Neurons Usi Ng Fimbria-Fomix Lesioned Rat Model
(1) Preparation of Fimbria-Fomix Lesioned Rat Model
In this study, Sprague-Dawley male rats (Charles River Laboratories Japan, Inc.) with a body weight of about 250 to 350 g were used. The rat was anesthetized under the combination of three drugs: midazolam (2 mg/kg s.c.), medetomidine hydrochloride (0.15 mg/kg s.c.) and butorphanol tartrate (2.5 mg/kg s.c.) and fixed with a brain stereotaxis apparatus (Narishige Co., Ltd.). The cranial was exposed and a hole with 5 mm width was drilled in the skull from the median line 2 mm posterior to Bregma. A razor with 4 mm width was pierced into the Bregma in 5.5 mm depth to cut fimbria-fornmix. After hemostasis, the scalp was sutured. After the operation, the rat was brought back to the cage and recovered from the anesthesia. In the sham-operated group, a hole with 5 mm width was drilled in the skull from the median line 2 mm posterior to Bregma, but no razor was pierced.
(2) Compound Administration
The test compounds were orally administered to the rats once a day from five days to nine days after the operation (Example 1: 10 mg/kg) or from seven days to fourteen days after the operation (Example 3: 3 mg/kg). The vehicle used was 0.01 mol/L hydrochloric acid. In the sham-operated group, the vehicle was orally administered once a day similarly to the test compound administration group.
The rats were anesthetized under pentobarbital and transcardially perfused with ice-cold PBS. After the perfusion, the forebrain including the medial septal area was collected and immersed and shaken overnight with 4% paraformaldehyde. The immersion solution was replaced with 7.5% sucrose solution. It was immersed and shaken overnight in 7.5% sucrose solution, and the immersion solution was replaced with 15% sucrose solution and it was immersed and shaken overnight. The immersion solution was replaced with 30% sucrose solution and it was immersed and shaken overnight. […]
The prepared brain coronal frozen sections were stained with DAB (DAB PEROXIDASE SUBSTRATE KIT (Vector, SK-4100)) using a ChAT antibody (Santa Cruz, S.C.-20672) or a VAChT antibody (Merck Millipore, ABN100) as a primary antibody. The section image including the medial septal area or hippocampus as shown in “The mouse Brain in stereotaxic coordinates” (COMPACT THIRD EDITION, Keith B.J. Franklin & George Paxinos) was taken by an all-in-one fluorescence microscope (KEYENCE, BZ-X710) and ChAT positive cells of the medial septal area or optical density (OD) in hippocampal VAChT were measured by BZ analysis software (KEYENCE). […] Data are expressed as the mean±SEM. The differences between the vehicle-treated group and compound-treated (significant: #) was analyzed by unpaired t-test. […]

[3] = oral 10 mg/kg once a day from five to nine days after operation
[4] = oral 3 mg/kg once a day from seven to fourteen days after operation

| SMILES | Ratio (%) of number of ChAT positive cells compared to that in the initial administration ([1]; oral 10 mg/kg once a day for three months (4 to 7 months old)) | OD in hippocampal VAChT (%) in test compound administration group [2, 3] | Number of ChAT positive cells (%) in test compound administration group [2, 3] | Ratio (%) of number of ChAT positive cells compared to that in the initial administration ([1]; oral 5 mg/kg once a day for three months (4 to 7 months old)) | OD in hippocampal VAChT (%) in test compound administration group [2, 4] | Number of ChAT positive cells (%) in test compound administration group [2, 4] |
| --- | --- | --- | --- | --- | --- | --- |
| CN1CCc2c(sc3nc4n(c(=O)c23)-c2ccc(F)cc2C(=O)N(C)C4)C1 [Example 1] | 105.0 ± 4.0^# % | 77.1 ± 14.6^# % | 79.1 ± 15.7% |  |  |  |
| CN1CCc2c(sc3nc4n(c(=O)c23)-c2sccc2C(=O)N(C)C4)C1 [Example 3, 5,10-dimethyl-5,6,9,10,11,12-hexahydropyrido[4″,3″:4′,5′]thieno[2′,3′:4,5]pyrimido[1,2-a]thieno[3,2-f][1,4]diazepine-4,13-dione] |  |  |  | 105.3 ± 4.3^# % | 66.1 ± 14.2^# % | 74.1 ± 9.3^# % |
